Assays:
[1] = biological target: T1, Src (p60^c-src) (Homo sapiens, UniProt P12931); experiment: SRC-Inhibitor-Assay, time-resolved fluorescence kinase assay (Src); format: biochemical; conditions: ATP 5 μM; peptide 10 μM; enzyme 2.5 U/ml; pre-incubated 15 min at 15° C.
T1 construct: purchased UBI, Upstate Biotech, Inc
Source text: (§1) The activity of the compounds according to this invention as inhibitors for the src-family tyrosine kinases was shown by using the following assay.
(§2) SRC-Inhibitor-Assay Parameters:
(§3) Eu-labelled Phosphotyrosine Antibody: for Lck Cisbio Mab PT66-K, • for Src EG&G Wallac PT66 Eu-W1024 (all commercially available).
(§4) Peptides: Ro: NH2-A-E-E-E-I-Y-G-E-F-E-A-K-K-K-K-CONH2, and • Ja133-Ro: Ja133-G-Aminocaprylic acid-A-E-E-E-I-Y-G-E-F-E-A-K-K-K-K-CONH2, wherein Ja133 is LightCycler-Red 640-N-hydroxy succinimide ester; • whereby both peptides were synthesized by an optimized solid phase peptide synthesis protocol (Merrifield, Fed. Proc. Fed. Amer. Soc. Exp. Biol. 21 (1962) 412) on a Zinsser SMP350 peptide synthesizer. Shortly, the peptide was assembled on 160 mg (22.8 μmol scale) of a Rink-Linker modified polystyrene solid phase by repeatedly conjugating an twenty fold excess of amino acids each protected by temporary piperidine labile Fmoc- and permanent acid labile tert-Bu—, BOC- and O-tert-Bu-groups depending on the side chain function. The substrate sequence AEEEIYGEFEAKKKK was N-terminal additionally mounted with the spacer amino acids Aminocaprylic acid and Glycin. After cleavage of the N-terminal temporary protecting group the still attached and protected peptide was labeled with a 1.5 fold amount of LightCycler-Red 640-N-hydroxy succinimide ester (purchased from Roche Diagnostics GmbH) and triethylamine. After 3 hrs. the resin was washed with Dimethylformamide and Isopropanol until the eluates of the blue resin got colourless. […] The substrate was finally isolated by a preparative reverse phase HPLC purification. The purification yielded 12.2 mg RP-HPLC single peak pure blue material (lyophilisate). The identity was proven by MALDI mass spectroscopy [2720.0].
(§5) Enzymes: Upstate Lck (p56^lck, active), Upstate Src (p60^c-src, partially purified) were purchased from UBI, Upstate Biotech, Inc.
(§6) Time-resolved Fluorescence Assay: Reader: Perkin Elmer, Wallac Viktor 1420-040 multilabel counter; Liquid handling system: Beckman Coulter, Biomek 2000.
(§7) ATP, Tween™ 20, 4-(2-hydroxyethyl)-1-piperazineethanesulfonic acid (HEPES) were purchased from Roche Molecular Biochemicals, MgCl2 and MnCl2 were purchased from Merck Eurolab, Tris(2-carboxyethyl)phosphine hydrochloride (TCEP) was purchased from Pierce, 384 Well low volume fluorescence plates was purchased from Falcon.
(§8) At first the enzyme is pre-incubated for 15 min. at 15° C. in aqueous solution with corresponding amounts of inhibitors according to this invention. Then the phosphorylation reaction is started by adding a reaction mixture, containing ATP, Peptide and PT66, and subsequent shaking. The proceeding of this reaction is immediately monitored using time resolved fluorescence spectroscopy in a suitable well plate reader.
(§9) The IC50-values can be obtained from the reaction rates by using a non-linear curve fit (XLfit software (ID Business Solution Ltd., Guilford, Surrey, UK))

[2] = biological target: T2, Lck (p56^lck) (Homo sapiens, UniProt P06239); experiment: SRC-Inhibitor-Assay, time-resolved fluorescence kinase assay (Lck); format: biochemical; conditions: ATP 5 μM; peptide 10 μM; enzyme 2.5 U/ml; pre-incubated 15 min at 15° C.
T2 construct: purchased UBI, Upstate Biotech, Inc
Source text: as §1, §2, §3, §4, §5, §6, §7, §8, §9

T1 sequence (P12931 whole entry): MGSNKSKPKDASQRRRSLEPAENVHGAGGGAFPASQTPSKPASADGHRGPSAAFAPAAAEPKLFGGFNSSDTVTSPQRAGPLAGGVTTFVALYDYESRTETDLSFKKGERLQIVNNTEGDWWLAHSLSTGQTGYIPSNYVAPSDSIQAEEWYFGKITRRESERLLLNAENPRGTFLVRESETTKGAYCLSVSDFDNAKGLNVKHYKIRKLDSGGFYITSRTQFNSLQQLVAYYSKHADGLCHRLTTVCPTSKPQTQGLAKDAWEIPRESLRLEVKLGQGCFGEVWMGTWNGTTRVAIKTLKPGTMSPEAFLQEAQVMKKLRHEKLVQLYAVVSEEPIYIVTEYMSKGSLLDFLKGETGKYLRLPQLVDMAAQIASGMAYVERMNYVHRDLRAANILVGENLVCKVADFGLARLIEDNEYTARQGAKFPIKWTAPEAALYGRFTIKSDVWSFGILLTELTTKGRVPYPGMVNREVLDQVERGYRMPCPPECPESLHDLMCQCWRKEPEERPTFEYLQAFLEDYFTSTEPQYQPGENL
T2 sequence (P06239 whole entry, species assumed): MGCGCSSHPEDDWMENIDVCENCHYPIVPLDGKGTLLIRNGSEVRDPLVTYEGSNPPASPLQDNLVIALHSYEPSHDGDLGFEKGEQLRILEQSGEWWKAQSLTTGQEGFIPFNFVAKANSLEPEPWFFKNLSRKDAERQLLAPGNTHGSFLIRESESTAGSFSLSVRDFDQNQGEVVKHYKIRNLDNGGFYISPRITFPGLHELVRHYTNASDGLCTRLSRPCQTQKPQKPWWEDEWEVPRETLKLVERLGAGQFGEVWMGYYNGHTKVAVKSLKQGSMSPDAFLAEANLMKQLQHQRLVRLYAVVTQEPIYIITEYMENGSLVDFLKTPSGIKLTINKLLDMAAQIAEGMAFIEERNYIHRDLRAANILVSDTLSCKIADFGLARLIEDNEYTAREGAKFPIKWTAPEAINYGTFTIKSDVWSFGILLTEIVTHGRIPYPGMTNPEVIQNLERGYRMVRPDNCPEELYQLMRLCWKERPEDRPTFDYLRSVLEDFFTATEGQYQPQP

CC(=O)Nc1cccc(Nc2ncc3cc(-c4ccccc4C)c(C(=O)NC[C@H]4CCCN4)nc3n2)c1 [Example 1, (R)-2-(3-Acetylamino-phenylamino)-6-o-tolyl-pyrido[2,3-d]pyrimidine-7-carboxylic acid (pyrrolidin-2-ylmethyl)-amide]
IC50 [1]: 0.7 nM
IC50 [2]: 8 nM

CS(=O)(=O)NCCNC(=O)c1nc2nc(Nc3ccc4c(c3)S(=O)(=O)CCO4)ncc2cc1-c1ccccc1C(F)(F)F [Example 2, 2-(4,4-Dioxo-3,4-dihydro-2H-4lambda*6*-benzo[1,4]oxathiin-6-ylamino)-6-(2-trifluoromethyl-phenyl)-pyrido[2,3-d]pyrimidine-7-carboxylic acid (2-methanesulfonylamino-ethyl)-amide]
IC50 [1]: 5 to 50 nM
IC50 [2]: 20 to 50 nM

CC(=O)Nc1cccc(Nc2ncc3cc(-c4ccccc4C)c(C(=O)NCCNS(C)(=O)=O)nc3n2)c1 [Example 3, 2-(3-Acetylamino-phenylamino)-6-o-tolyl-pyrido[2,3-d]pyrimidine-7-carboxylic acid (2-methanesulfonylamino-ethyl)-amide]
IC50 [1]: 1 nM
IC50 [2]: 11.8 nM

Cc1ccccc1-c1cc2cnc(Nc3ccc(N4CCOCC4)cc3)nc2nc1C(=O)NCCNS(C)(=O)=O [Example 5, 2-(4-Morpholin-4-yl-phenylamino)-6-o-tolyl-pyrido[2,3-d]pyrimidine-7-carboxylic acid (2-methanesulfonylamino-ethyl)-amide]
IC50 [1]: 0.5 to 5 nM
IC50 [2]: 1 to 20 nM

Cc1ccccc1-c1cc2cnc(Nc3ccc(N4CCOCC4)cc3)nc2nc1C(=O)NC[C@H]1CCCN1 [Example 7, (R)-2-(4-Morpholin-4-yl-phenylamino)-6-o-tolyl-pyrido[2,3-d]pyrimidine-7-carboxylic acid (pyrrolidin-2-ylmethyl)-amide]
IC50 [1]: 0.5 to 5 nM
IC50 [2]: 1 to 20 nM

CNCCNC(=O)c1nc2nc(Nc3cccc(NC(C)=O)c3)ncc2cc1-c1ccccc1C [Example 8, 2-(3-Acetylamino-phenylamino)-6-o-tolyl-pyrido[2,3-d]pyrimidine-7-carboxylic acid (2-methylamino-ethyl)-amide]
IC50 [1]: 0.5 to 5 nM
IC50 [2]: 1 to 20 nM

CNCCNC(=O)c1nc2nc(Nc3cccc(NS(C)(=O)=O)c3)ncc2cc1-c1ccccc1C [Example 9, 2-(3-Methanesulfonylamino-phenylamino)-6-o-tolyl-pyrido[2,3-d]pyrimidine-7-carboxylic acid (2-methylamino-ethyl)-amide]
IC50 [1]: 0.5 to 5 nM
IC50 [2]: 1 to 20 nM

CS(=O)(=O)NCCNC(=O)c1nc2nc(Nc3ccc(N4CCOCC4)cc3)ncc2cc1-c1ccccc1C(F)(F)F [Example 11, 2-(4-Morpholin-4-yl-phenylamino)-6-(2-trifluoromethyl-phenyl)-pyrido[2,3-d]pyrimidine-7-carboxylic acid (2-methanesulfonylamino-ethyl)-amide]
IC50 [1]: 0.5 to 5 nM
IC50 [2]: 1 to 20 nM

O=C(NC[C@H]1CCCN1)c1nc2nc(Nc3ccc(N4CCOCC4)cc3)ncc2cc1-c1ccccc1C(F)(F)F [Example 14, (R)-2-(4-Morpholin-4-yl-phenylamino)-6-(2-trifluoromethyl-phenyl)-pyrido[2,3-d]pyrimidine-7-carboxylic acid (pyrrolidin-2-ylmethyl)-amide]
IC50 [1]: 0.5 to 5 nM
IC50 [2]: 1 to 20 nM

CC(=O)Nc1cccc(Nc2ncc3cc(-c4ccccc4C(F)(F)F)c(C(=O)NC[C@H]4CCCN4)nc3n2)c1 [Example 15, (R)-2-(3-Acetylamino-phenylamino)-6-(2-trifluoromethyl-phenyl)-pyrido[2,3-d]pyrimidine-7-carboxylic acid (pyrrolidin-2-ylmethyl)-amide]
IC50 [1]: 0.5 to 5 nM
IC50 [2]: 1 to 20 nM

O=C(NC[C@H]1CCCN1)c1nc2nc(Nc3ccc4c(c3)S(=O)(=O)CCO4)ncc2cc1-c1ccccc1C(F)(F)F [Example 17, (R)-2-(4,4-Dioxo-3,4-dihydro-2H-4lambda*6*-benzo[1,4]oxathiin-6-ylamino)-6-(2-trifluoromethyl-phenyl)-pyrido[2,3-d]pyrimidine-7-carboxylic acid (pyrrolidin-2-ylmethyl)-amide]
IC50 [1]: 5 to 50 nM
IC50 [2]: 20 to 50 nM
